Results on two compounds are retold here after US20210379042A1, “METHODS FOR MONITORING TUMOR LYSIS SYNDROME” (Sumitomo Dainippon Pharma Oncology, Inc., priority 2018, published 2021).

The structures appear in SMILES notation.

For data set [1] the following is noted: statement without data; prodrugs described in WO 2016/187316 and WO 2018/094275; cited from earlier work.
Data set [2] has as its system patients having newly diagnosed AML. The data set is described as follows: Example 5: alvocidib plus daunorubicin/cytarabine (ACD) with TLS monitoring, treatment-emergent adverse events classified as TLS. In kind it is in vivo, human. As to the method: This study will evaluate the safety and efficacy of alvocidib in combination with cytarabine/daunorubicin (7+3) in patients with newly diagnosed AML. Treatment consists of increasing dose levels of alvocidib starting at 20 mg/m^2 as a 30-minute IV bolus followed by 30 mg/m^2 over 4 hours on days 1-3, cytarabine 100 mg/m^2/day by continuous IV infusion on days 5-11, followed by (e.g., followed about 30 minutes later by) daunorubicin 60 mg/m^2 IV on days 5-7. Reinduction therapy with alvocidib (same dose as induction) days 1-3, followed by cytarabine 100 mg/m^2/day continuous IV on days 5-9, and daunorubicin 45 mg/m^2 IV days 5-6 is recommended in patients with >10% and >5% cellularity and blasts, respectively.
For patients at high risk for TLS, including those with risk scores of greater than or equal to 2 according to Table 1, those with monocytic leukemia phenotype, or those with a history of FLT3 positive AML, monitoring will include: (i) obtaining a STAT serum potassium at the end of an alvocidib infusion; (ii) obtaining a serum potassium 2 hours after the end of an alvocidib infusion, (iii) obtaining a full TLS panel 4 hours after the end of an alvocidib infusion, and (iv) monitoring fibrinogen levels at baseline and then as clinically indicated. If there is evidence of clinically meaningful TLS, a TLS panel will be obtained every 2 hours during the first 24 hours after the end of an alvocidib infusion (assessment of LDH levels at least once every 24 hours is also recommended). If there is no evidence of clinically meaningful TLS, a TLS panel will be obtained every 4 hours during the first 24 hours after the end of an alvocidib infusion (assessment of LDH levels at least once every 24 hours is also recommended). If, after the first 24 hours after the end of an alvocidib infusion, there is no evidence of TLS, a TLS panel will be obtained approximately every 6 hours for the remainder of alvocidib treatment, and then every 12 hours after completion of alvocidib during daunorubicin and cytarabine treatment (assessment of LDH levels at least once every 24 hours is also recommended).
For patients not at high risk for TLS, tumor lysis evaluations will be monitored at the start of alvocidib treatment and approximately every 4 hours thereafter for 24 hours. Laboratory studies during this period will be run as a “STAT” to ensure the results are available in a timely manner. If there is no evidence of TLS during first the 24 hours, then tumor lysis evaluations will be monitored approximately every 6-8 hours for the remainder of alvocidib treatment, and then every 12 hours after the completion of alvocidib during cytarabine and daunorubicin treatment. Fibrinogen levels will be monitored at baseline and then as clinically indicated.
Patients were treated with ACD according to a treatment regimen similar to that described in Example 2, and monitored for TLS according to the monitoring protocols described in Example 2. Briefly, treatment consisted of increasing dose levels of alvocidib starting at 20 mg/m^2 as a 30-minute (±10 minutes) IV bolus followed by 30 mg/m^2 as a 4-hour (±15 minutes) IV infusion on days 1-3, followed by daunorubicin 60 mg/m^2 IV on days 5-7 via IV bolus of up to 15 minutes (±5 minutes) in duration each day, followed by (e.g., followed immediately by) cytarabine 100 mg/m^2/day by 24-hour (±2 hours) continuous IV infusion on days 5-11. Reinduction therapy with alvocidib (same dose as induction) days 1-3, followed by daunorubicin 45 mg/m^2 IV via IV bolus of up to 15 minutes (±5 minutes) in duration each day on days 5-6, followed by (e.g., followed immediately by) cytarabine 100 mg/m^2/day continuous, 24-hour IV infusion (±2 hours) on days 5-9, was recommended in patients with evidence of residual leukemia, defined as >5% bone marrow blasts plus >10% cellularity, based on day 14 (±3 days) bone marrow. […]

For data set [3], the system named is cancer patients being treated with alvocidib. The experiment in a line: Clinical trials using a TLS monitoring protocol described herein: deaths attributed to TLS. In kind it is in vivo, human. To be noted: to date. The source says: Current protocols for monitoring the development of TLS in patients vary greatly due to interindividual clinician experience and different standards of care among institutions. The risk for and rapid development of TLS in cancer patients being treated with alvocidib presents a need for more precise but clinically practical TLS monitoring protocols that allow subjects to remain on alvocidib treatment and avoid dose-limiting TLS. To date, there have been no deaths attributed to TLS in clinical trials using a TLS monitoring protocol described herein.

Where [4] appears, read: Study Total, all dose levels (N = 31).
The mark [5] stands for this setting: alvocidib 30/40 mg/m^2 (bolus/infusion) days 1-3 with daunorubicin and cytarabine (N = 3).
The mark [6] stands for this setting: alvocidib 30/60 mg/m^2 (bolus/infusion) days 1-3 with daunorubicin and cytarabine (N = 22).

On to `CN1CC[C@H](c2c(OP(=O)(O)O)cc(O)c3c(=O)cc(-c4ccccc4Cl)oc23)[C@H](O)C1` [Ia], for which, in data set [1], the oral bioavailability result is given as “orally bioavailable”.
In the case of `CN1CC[C@H](c2c(O)cc(O)c3c(=O)cc(-c4ccccc4Cl)oc23)[C@H](O)C1` [Alvocidib, 2-(2-chlorophenyl)-5,7-dihydroxy-8-[(3 S,4R)-3-hydroxy-1-methylpiperidin-4-yl]chromen-4-one], the “Tumor lysis syndrome, treatment-emergent adverse events, number of patients” value turned out to be 8 in data set [2] (setting [4]); 0 in data set [2] (alvocidib 20/30 mg/m^2 (bolus/infusion) days 1-3 with daunorubicin and cytarabine (N = 3)); 1 in data set [2] (setting [5]); 0 in data set [2] (alvocidib 30/50 mg/m^2 (bolus/infusion) days 1-3 with daunorubicin and cytarabine (N = 3)); 7 in data set [2] (setting [6]). Moreover, the “Tumor lysis syndrome, treatment-emergent adverse events, percent of patients” value in data set [2] (setting [4]) turned out to be 25.8%; in data set [2] (setting [5]), 33.3%; in data set [2] (setting [6]), 31.8%. The “deaths attributed to TLS” value in data set [3] was “no deaths”.
